Structures can show the parent of a compound that is named as a salt.
Experiments:
[1] = biological target: T1, M1 receptor (Homo sapiens, UniProt P11229); experiment: DMR assay, antagonism of acetylcholine in CHO-K1 cells stably transfecting the M1 receptor; assay type: cell-based; conditions: for IC50: DMR, acetylcholine 1 μM, 1 h pretreatment, time point 5 min; for antagonistic activity against the M1 receptor, in words: structure-activity comparison with parent compound
T1 construct: expressed in transfected cells; host or cells: CHO-K1
T1 sequence (P11229 1-460): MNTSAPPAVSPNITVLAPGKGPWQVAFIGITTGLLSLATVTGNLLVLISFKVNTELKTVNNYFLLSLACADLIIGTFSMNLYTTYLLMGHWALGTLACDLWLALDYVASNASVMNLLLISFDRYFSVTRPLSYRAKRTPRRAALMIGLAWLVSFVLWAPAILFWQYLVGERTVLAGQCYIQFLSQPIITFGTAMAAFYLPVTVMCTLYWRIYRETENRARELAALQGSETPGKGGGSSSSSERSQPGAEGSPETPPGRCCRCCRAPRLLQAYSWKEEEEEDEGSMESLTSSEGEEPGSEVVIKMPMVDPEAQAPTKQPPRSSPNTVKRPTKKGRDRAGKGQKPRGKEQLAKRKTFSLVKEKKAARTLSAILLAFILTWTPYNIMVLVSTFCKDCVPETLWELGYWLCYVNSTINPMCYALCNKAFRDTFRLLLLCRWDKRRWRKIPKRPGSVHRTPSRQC
Method: (§1) The present invention relates to the antagonistic activity of the compound against the muscarinic receptor, which is primarily assessed by a cell-level dynamic mass redistribution (DMR) assay method. All tests are carried out on Epic platform, wherein the target model of the muscarinic receptor M1 is the CHO-K1 ceil model stably transfecting the M1 receptor, the target model of M3 is the HT-29 cell model endogenously highly expressing the M3 receptor, and the selected probe molecule is acetylcholine. Tire probe molecule acetylcholine is dissolved in water, while all other compounds are dissolved in DMSO.
(§2) The inoculated cell plate is placed in a cell incubator for culture for 12 h until the cell growth and fusion degree reaches about 95%, and the activity assay is carried out. The culture medium is sucked from the cultured ceils, the buffer salt specified by the test is added with a volume of 30 μL per orifice and is stabilized for 1 h. After the baseline is stable, a 2-min baseline is established, and different concentrations of compounds to be tested are added to test the cultured cells for 1 h. After the cells are pretreated with the compounds to be tested for 1 h, the 2-min baseline is re-established, and acetylcholine having a concentration of 1 μM is added to test the cultured cells for 1 h.

[2] = biological target: T2, M3 receptor (Homo sapiens, UniProt P20309); experiment: DMR assay, antagonism of acetylcholine in HT-29 cells endogenously expressing the M3 receptor; assay type: cell-based; conditions: for IC50: DMR, acetylcholine 16 μM, 1 h pretreatment, time point 30 min; for antagonistic activity against the M3 receptor, in words: structure-activity comparison with parent compound
T2 construct: HT-29 cell model endogenously highly expressing the M3 receptor; endogenous in cells; host or cells: HT-29
T2 sequence (P20309 whole entry): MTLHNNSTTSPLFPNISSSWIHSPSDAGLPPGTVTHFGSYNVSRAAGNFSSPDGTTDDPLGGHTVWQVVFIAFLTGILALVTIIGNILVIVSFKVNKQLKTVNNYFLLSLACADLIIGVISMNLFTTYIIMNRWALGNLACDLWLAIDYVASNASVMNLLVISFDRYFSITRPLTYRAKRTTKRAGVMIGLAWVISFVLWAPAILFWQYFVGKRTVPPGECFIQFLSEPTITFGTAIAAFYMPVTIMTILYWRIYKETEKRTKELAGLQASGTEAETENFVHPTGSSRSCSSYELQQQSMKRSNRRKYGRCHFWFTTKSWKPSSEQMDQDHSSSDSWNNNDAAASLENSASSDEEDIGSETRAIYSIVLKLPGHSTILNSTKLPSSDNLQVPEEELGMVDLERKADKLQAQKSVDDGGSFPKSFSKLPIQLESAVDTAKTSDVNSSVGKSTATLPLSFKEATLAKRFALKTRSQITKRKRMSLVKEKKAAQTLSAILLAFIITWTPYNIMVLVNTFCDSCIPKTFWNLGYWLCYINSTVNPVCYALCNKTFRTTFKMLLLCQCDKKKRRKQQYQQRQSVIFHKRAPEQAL
Method: as §1
as §2, with “20” for “12”, “cells,” for “ceils,”, “h.” for “h. After the cells are pretreated with the compounds to be tested for 1 h, the 2-min baseline is re-established, and acetylcholine having a concentration of 1 μM is added to test the cultured cells for 1 h.”

Row | Compound | IC50 ([1]; CHO-K1-M1 cells) [nM] | IC50 ([2]; HT-29 cells) [nM] | other results
1 | Cc1ccc(O)c(C(CC2CCCC[N+]2(C)C)c2ccccc2)c1 (stereo not drawn) [I-4B-2-Br, 2-[2-(2-hydroxy-5-methyl-phenyl)-phenethyl]-N,N-dimethylpiperidine Bromide] | 157 ± 61.6 | 217 ± 37.9 | –
2 | CN1CCCCC1CC(c1ccccc1)c1ccccc1O (stereo not drawn) [II-2a, 2-[2-(2-hydroxy-phenyl)phenethyl]-N-methylpiperidine] | – | – | DMR response signal of the compound itself ([2]; HT-29 cells, FIG. 2): almost zero
3 | C[N+]1(C)CCCCC1CC(c1ccccc1)c1cc(F)ccc1O (stereo not drawn) [I-10b-1, 2-[2-(2-hydroxy-5-fluorophenyl)-phenylethyl]-N,N-dimethylpiperidine bromide] | – | 35.2 ± 6.3 | –
4 | C[N+]1(C)CCCCC1CC(c1ccccc1)c1cc(F)ccc1O (single isomer, unassigned) [I-10a, 2-[2-(2-hydroxy-5-fluorophenyl)-phenylethyl]-N,N-dimethylpiperidine bromide] | 13.2 ± 1.2 | – | –
5 | Cc1ccc(O)c(C(CC2CCCC[N+]2(C)C)c2ccccc2)c1 (single isomer, unassigned) [I-4b-Br, 2-[2-(2-hydroxy-5-methyl-phenyl)-phenethyl]-N,N-dimethylpiperidine Bromide] | 61 ± 21.8 | 47.7 ± 11.9 | –
6 | C[N+]1(C)CCCCC1CC(c1ccccc1O)c1ccccc1O (stereo not drawn) [I-3-I, 2-[2,2-bis(2-hydroxyphenyl)ethyl]-N,N-dimethylpiperidine Iodide] | 63.5 ± 15.1 | 6.9 ± 1.3 | –
7 | Cc1ccc(O)c(C(CC2CCCC[N+]2(C)C)c2ccccc2)c1 (stereo not drawn) [I-4a-I, 2-[2-(2-hydroxy-5-methyl-phenyl)-phenethyl]-N,N-dimethylpiperidine Iodide] | 13.8 ± 1.5 | 9.3 ± 1 | –
8 | 2-[2-(2-methyl p-toluenesulfonate group-5-methyl-phenyl)-phenethyl]-N,N-dimethylpiperidine Bromide [I-26] | – | 793 ± 69.7 | –
9 | CN1CCCCC1CC(c1ccccc1)c1cccs1 (stereo not drawn) [II-21] | 3680 ± 810 | 2420 ± 330 | –
10 | COc1ccccc1C(CC1CCCCN1C)c1ccccc1 (stereo not drawn) [II-17] | 6700 ± 810 | 3420 ± 330 | –
11 | CCc1ccc(O)c(C(CC2CCCC[N+]2(C)C)c2ccccc2)c1 (stereo not drawn) [I-5-I, 2-[2-(2-hydroxy-5-ethyl-phenyl)-phenethyl]-N,N-dimethylpiperidine Iodide] | 20 ± 2.3 | 18.8 ± 2.3 | –
12 | CN1CCCCC1CC(c1ccccc1O)c1ccccc1O (stereo not drawn) [I-3-Cl, 2-[2,2-bis(2-hydroxyphenyl)-ethyl]-N-methylpiperidine Hydrochloride] | 402 ± 185 | 66.2 ± 51.8 | –
13 | CCc1ccc(O)c(C(CC2CCCC[N+]2(C)C)c2ccccc2)c1 (stereo not drawn) [I-5-Br, 2-[2-(2-hydroxy-5-ethyl-phenyl)-phenethyl]-N,N-dimethylpiperidine Bromide] | 45.6 ± 7.8 | 10.5 ± 1.1 | –
14 | C[N+]1(C)CCCCC1CC(c1ccccc1)c1cc(F)ccc1O (single isomer, unassigned) [I-10b-2, 2-[2-(2-hydroxy-5-fluorophenyl)-phenylethyl]-N,N-dimethylpiperidine bromide] | – | 164 ± 12.6 | –
15 | Cc1ccc(O)c(C(CC2CCCC[N+]2(C)C)c2ccccc2)c1 (stereo not drawn) [I-4a-2-Br, 2-[2-(2-hydroxy-5-methyl-phenyl)-phenethyl]-N,N-dimethylpiperidine Bromide] | 832 ± 132 | 1210 ± 120 | –
16 | Cc1ccc(O)c(C(CC2CCCC[N+]2(C)C)c2ccccc2)c1 (stereo not drawn) [I-4b-1-Br, 2-[2-(2-hydroxy-5-methyl-phenyl)-phenethyl]-N,N-dimethylpiperidine Bromide] | 47.5 ± 13.5 | 27.1 ± 5.3 | –
17 | CCc1ccc(O)c(C(CC2CCCCN2C)c2ccccc2)c1 (stereo not drawn) | – | – | DMR response signal of the compound itself ([1]; CHO-K1-M1 cells, FIG. 1): almost zero; antagonistic activity against the M1 receptor, in words [1]: the highest
18 | 2-[2-(2-hydroxy-5-fluorophenyl)-phenylethyl]-N,N-dimethylpiperidine bromide [I-10b] | – | 109 ± 39.4 | –
19 | C[N+]1(C)CCCCC1CC(c1ccccc1)c1cc(F)ccc1O (single isomer, unassigned) [I-10a-2, 2-[2-(2-hydroxy-5-fluorophenyl)-phenylethyl]-N,N-dimethylpiperidine bromide] | – | 82.9 ± 11.7 | –

Now from value to compound, other results behind:

Row | IC50 ([1]; CHO-K1-M1 cells) [nM] | IC50 ([2]; HT-29 cells) [nM] | Compound | other results
20 | 113 ± 41.2 | 97.2 ± 21.1 | C[N+]1(C)CCCCC1CC(c1ccccc1)c1ccc(F)cc1O (stereo not drawn) [I-8, 2-[2-(2-hydroxy-4-fluorophenyl)-phenethyl]-N,N-dimethylpiperidine bromide] | –
21 | 2530 ± 480 | 790 ± 75 | Cc1ccc(OC(=O)C(C)C)c(C(CC2CCCC[N+]2(C)C)c2ccccc2)c1 (stereo not drawn) [I-23, 2-[2-(2-isobutyryl estergroup-5-methyl-phenyl)-phenethyl]-N,N-dimethylpiperidine Bromide] | –
22 | – | 249 ± 9.8 | CN1CCCCC1CC(c1ccccc1)c1cc(C(F)(F)F)ccc1O (stereo not drawn) [II-13, 2-[2-(2-hydroxy-5-trifluoromethyl-phenyl)-phenethyl]-N-methylpiperidine] | –
23 | 3340 ± 210 | 1210 ± 120 | CC(=O)Oc1ccc(C)cc1C(CC1CCCCN1C)c1ccccc1 (stereo not drawn) [II-24, 2-[2-(2-acetategroup-5-methyl-phenyl)-phenethyl]-N-methylpiperidine] | antagonistic activity against the M1 receptor, in words [1]: the activity is greatly decreased; antagonistic activity against the M3 receptor, in words [2]: the activity is greatly decreased
24 | 133 ± 22.8 | 20.3 ± 3.6 | CCCc1ccc(O)c(C(CC2CCCC[N+]2(C)C)c2ccccc2)c1 (stereo not drawn) [I-6, 2-[2-(2-hydroxy-5-propyl-phenyl)-phenethyl]-N,N-dimethylpiperidine Bromide] | –
25 | 73.2 ± 12.5 | 320 ± 41.4 | COc1ccc(O)c(C(CC2CCCCN2C)c2ccccc2)c1 (stereo not drawn) [II-9, 2-[2-(2-hydroxy-5-methoxy-phenyl)-phenethyl]-N-methylpiperidine] | –
26 | 48.3 ± 11 | 78 ± 31 | Cc1ccc(C(CC2CCCC[N+]2(C)C)c2cc(C)ccc2O)cc1 (stereo not drawn) [I-15, 2-[2-(4-tolyl)-2-(2-hydroxy-5-methyl-phenyl)-ethyl]-N,N-dimethylpiperidine Bromide] | –
27 | 53.2 ± 12.5 | 49.3 | CN1CCCCC1CC(c1ccccc1)c1cc(F)ccc1O (single isomer, unassigned) [II-10a, 2-[2-(2-hydroxy-5-fluorophenyl)-phenethyl]-N-methylpiperidine] | –
28 | – | 20.7 ± 3.6 | Cc1ccc(O)c(C(CC2CCCCN2C)c2ccsc2)c1 (stereo not drawn) [II-22, 2-[2-(3-thienyl)-2-(2-hydroxy-5-methyl-phenyl)-ethyl]-N-methylpiperidine] | –
29 | 129 ± 29.8 | 149 ± 39.5 | Cc1ccc(O)c(C(CC2CCCCN2C)c2ccc(Cl)cc2)c1 (stereo not drawn) [II-14, 2-[2-(4-chlorophenyl)-2-(2-hydroxy-5-methylphenyl)ethyl]-N-methylpiperidine] | –
30 | 997 ± 60 | 2310 ± 600 | Cc1ccc(OC(=O)c2ccccc2)c(C(CC2CCCC[N+]2(C)C)c2ccccc2)c1 (stereo not drawn) [I-25, 2-[2-(2-benzoate Group-5-methyl-phenyl)-phenethyl]-N,N-dimethylpiperidine Bromide] | –
31 | 74.5 ± 6 | 137 ± 22.9 | Cc1ccc(O)c(C(CC2CCCN2C)c2ccccc2)c1 (stereo not drawn) [II-19] | –
32 | 41 ± 9.2 | 29.9 ± 4.7 | Cc1ccc(O)c(C(CC2CCC[N+]2(C)C)c2ccccc2)c1 (stereo not drawn) [I-19, 2-[2-(2-hydroxy-5-methyl-phenyl)-phenethyl]-N,N-dimethylpyrrolidine Bromide] | –
33 | 1600 ± 200 | 2970 ± 700 | Cc1ccc(OC(=O)c2ccccc2)c(C(CC2CCCCN2C)c2ccccc2)c1 (stereo not drawn) [II-25, 2-[2-(2-benzoate Group-5-methyl-phenyl)-phenethyl]-N-methylpiperidine] | antagonistic activity against the M1 receptor, in words [1]: the activity is greatly decreased; antagonistic activity against the M3 receptor, in words [2]: the activity is greatly decreased
34 | – | 371 ± 67.8 | CCc1cccc(C(CC2CCCCN2C)c2cc(C(C)C)cc(C)c2O)c1 (stereo not drawn) [II-16, 2-[2-(2-hydroxy-3-methyl-5-isopropylphenyl)-2-(3-ethylphenyl)-ethyl]-N-methylpiperidine] | –
35 | – | 620 ± 49.4 | CCCCCOc1ccc(O)c(C(CC2CCCCN2C)c2ccccc2)c1 (stereo not drawn) [II-12, 2-[2-(2-hydroxy-5-pentyloxy-phenyl)-phenethyl]-N-methylpiperidine] | –

From patent US11274079B2 (DALIAN INSTITUTE OF CHEMICAL PHYSICS, CHINESE ACADEMY OF …, priority 2018, dated 2022)
